Columns and labels:
[1] = test system: Skov3-GD2, H446, CHLA255 cells; assay: Target cell killing after IFNγ treatment; format: cell-based; conditions: 100ng/ml IFNγ 24 hours; E:T 1:1, 48 hours (Skov3-GD2) or 96 hours (H446, CHLA255)
Procedure: (§1) SupT1 Nalm6 Raji Skov3 CHLA H446
(§2) Supplementary Figure 4: Effect of endogenous PDL1: A) Tumor cell lines were treated with […]
(§3) for PDL1 expression. B-D) The indicated tumor cell lines were treated with 100ng/ml IFNγ for 24 hours or left untreated following which 2x10^5 tumor cells were co-cultured with the indicated CAR T cells at an effector:target ratio of 1:1 for 48 hours (Skov3-GD2) or 96 hours (H446, CHLA255) and tumor cell killing assessed by flow cytometry and normalised to respective co-cultures with non-transduced (NT) T cells (100%). Points represent individual […]

[2] = test system: tumor cell lines (SupT1, Nalm6, Raji, Skov3, CHLA, H446); assay: Upregulation of endogenous PDL1 by IFNγ; format: cell-based; conditions: IFNγ 10-400 ng/ml, 24 hours; flow cytometry
Procedure: In order to assess the effect of upregulation of endogenous PDL1 on tumour cells, cell lines were incubated for 24 hours with increasing amounts of IFNγ (10, 20, 40, 60, 80, 100, 200, 400 ng/ml) and PDL1 levels were assessed by flow cytometry.
as §1, §2, §3

SHP2 = test system: SHP2; design: method as in PMID 30972278; conditions: following activation; ref [29]; cited from earlier work
SupT1-GD2 cells = assay: Effect of inhibitory ligand expression on GD2 CAR cytotoxicity; format: cell-based; conditions: ligand expressed on SupT1-GD2, E:T 1:4 and 1:8, 6 days
Procedure: (§4) Transduced T cells were depleted of CD56 cells using the EasySep Human CD56 positive selection kit (Stemcell Technologies; 17855) and rested for 24 hours. Transduced cells were co-cultured with target cells at the indicated effector: target (E:T) ratios with target cells remaining constant at the indicated number of target cells/co-culture. At the end of the co-culture period target cells were enumerated by flow cytometry and cytotoxicity calculated as a percentage of the number of target cells recovered from co-cultures with non-transduced (NT) T cells.
Figure 3 Interaction of dSHP2 with immunoinhibitory T cell receptors. (A-E) Binding of dSHP2 to phosphorylated peptides derived from the endodomains of immunoinhibitory T cell receptors. Plates were coated with phosphorylated or non-phosphorylated peptide at the indicated concentration and the purified, His-tagged SH2 domains of dSHP2 were allowed to bind overnight. Binding was measured through detection of the His tag. (F) Effect of inhibitory ligand expression on target cells on CAR T cytotoxicity. […] Supernatants were harvested from these co-cultures and levels of IFNγ measured by ELISA (I). […] Statistical significance was measured by two-way ANOVA. […]

SHP2 protein = assay: Western blot of SHP2 after gene disruption; format: cell-based; conditions: after 6 days, 4 donors
Procedure: (§5) Expression of the SHP2 (PTPN11) gene was disrupted by Cas9-mediated indel formation. For each sgRNA, 2 samples of 5x10^6 PBMCs were nucleofected in […] of P3 buffer (Lonza; V4XP-3024) with 125 pmol of Alt-R Sp HiFi Cas 9 nuclease v3 (IDT; 108210621) complexed with 187.5 pmol of the PTPN11 sgRNA ([…]) or a non-targeting sgRNA ([…]; Synthego) using pulse code EH-115. Complexing of Cas9 and the sgRNA was carried out at ambient temperature for 10 minutes prior to nucleofection. […] PBMCs were transduced with retroviral constructs 24 hours after nucleofection. PBMCs were collected for genotyping, Western blotting and functional assessment 6 days after nucleofection.
Cells were stimulated as indicated then 0.5x10^6 cells were harvested and pelleted at 400xg for 2 minutes. The pellets were washed with ice-cold PBS, centrifuged as before and lysed in 50μl of 1x RIPA buffer (Millipore) supplemented with 1x protease and phosphatase inhibitor (Abcam). The cells were incubated on ice for 15 minutes, vortexed and incubated for further 15 minutes. The lysate was clarified by centrifuging the cells at 13000xg for 10 minutes at 4°C, protein concentration was determined using the BCA Protein assay Kit (Pierce) and stored at -80°C until use. Prior to gel electrophoresis lysates were mixed with NuPAGE™ LDS Sample Buffer (4X) (Invitrogen™) and heated at 95°C for 10 minutes. […]

SHP2 (PTPN11) gene = assay: SHP2 gene disruption (ICE); format: cell-based; conditions: Cas9 RNP nucleofection of T cells, after 6 days; 4 donors
Procedure: as §5
Genomic DNA was extracted from PBMCs using the GenElute Blood Genomic DNA Kit (Sigma; NA2010) according to the manufacturer’s instructions. The sequence flanking the SHP2 sgRNA target site was amplified by PCR from 100 ng of genomic DNA using Q5 DNA polymerase (NEB; M0491L) and the primers, SHP2_forward 5’-[…]-3’ and SHP2_reverse 5’-[…]-3’ (IDT). The PCR products were Sanger sequenced (Source Bioscience) and indel formation and knockout efficiencies determined by ICE (Synthego), comparing SHP2-edited and non-target-edited sequences to an unedited control.

SupT1-GD2-PDL1 cells [3] = assay: CAR T cytotoxicity, dSHP2 versus SHP2 knock-out; format: cell-based; conditions: GD2 CAR alongside PD1
Procedure: as §4, §5
Supplementary Figure 5: Comparison of dSHP2 expression with genomic excision of SHP2. […]

[4] = test system: SupT1-GD2-PDL1 target cells; assay: IFNγ release, dSHP2 versus Pembrolizumab; format: cell-based; conditions: GD2 CAR; Pembrolizumab 2.5, 5, 10 µg/mL; E:T 1:8, 72 hours
Procedure: (§6) Supplementary Figure 6: Comparison of dSHP2 with Pembrolizumab. A) T cells expressing RQR8 and the GD2 CAR alone or in combination with PD1 and/or dSHP2 were incubated with 1x10^5 SupT1 cells lacking antigen expression (SupT1-NT) or engineered to express GD2 alone (SupT1-GD2) or in the presence of PDL1 (SupT1-GD2-PDL1) at an effector:target ratio of 1:8 for 72 hours. Pembrolizumab was included in co-cultures with T cells expressing PD1 and the GD2 CAR at the indicated concentrations. Surviving target cells were enumerated and normalized to the respective co-cultures with non-transduced T cells (100%). B) Supernatants from co-cultures in (A) were analyzed for IFNγ by ELISA. C-D) T cells were labelled with Cell Trace Violet and co-cultured with 2x10^5 SupT1 target cells at an E:T ratio of 1:4 for 5 days and CAR T cells enumerated. Bars represent the mean of 3-6 biologically independent replicates. […]

[5] = test system: CAR T cells with SupT1-GD2-PDL1 target cells; assay: CAR T proliferation, dSHP2 versus Pembrolizumab; format: cell-based; conditions: Pembrolizumab 2.5, 5, 10 µg/mL, E:T 1:4, 5 days
Procedure: PBMCs were labelled with Cell Trace Violet (CTV) according to manufacturer’s instructions (ThermoFisher Scientific; C34557) and cultured with 0.5x10^5 target cells at 1:1 E:T ratio for 96 hours. Numbers of CD3^+ RQR8+ T cells and CTV MFI were assessed by flow cytometry.
as §6

SupT1-GD2-PDL1 cells [6] = assay: CAR T cytotoxicity, dSHP2 versus Pembrolizumab; format: cell-based; conditions: Pembrolizumab 2.5, 5, 10 µg/mL, E:T 1:8, 72 hours, 3-6 replicates
Procedure: as §4
as §6, with “enumerated.” for “enumerated. Bars represent the mean of 3-6 biologically independent replicates.”

## IFNγ: exogenous IFNγ used to upregulate PDL1 on tumor cell lines
[1]
  target cell killing with exogenous IFNγ: increased target cell killing
[2]
  PDL1 upregulation: did upregulate PDL1 in some cell lines

## CC1(N)CCN(c2cnc(-c3cccc(Cl)c3Cl)c(N)n2)CC1 [SHP099]
SHP2
  effect on central memory population, effector molecule expression: increased central memory population and increased expression of granzyme B, perforin, IFNγ, TNFα and FasL
  effect on proliferation or viability: no effect on proliferation or viability

## CD80: inhibitory ligand of CTLA4 expressed on SupT1-GD2 cells
SupT1-GD2 cells
  effect of target cell ligand expression on CAR T cytotoxicity: mild enhancement of CAR T cytotoxicity

## SHP2-directed sgRNA: PTPN11 sgRNA (GAGACUUCACACUUUCCGUU) complexed with Cas9 nuclease (complexed with Cas9 nuclease, further chemistry not given here)
SHP2 protein
  SHP2 protein level: significant decrease in SHP2 protein
SHP2 (PTPN11) gene
  indel formation: greater than 80%
SupT1-GD2-PDL1 cells [3]
  relief of PDL1-mediated inhibition of CAR T cells: substantially less

## pembrolizumab: antibody blocking PD1
[4]
  restoration of IFNγ release, compared with Pembrolizumab: slightly greater restoration of IFNγ secretion at the highest concentration
[5]
  restoration of proliferation, compared with Pembrolizumab: comparable effects
SupT1-GD2-PDL1 cells [6]
  restoration of killing, compared with Pembrolizumab: comparable effects

— publication PMC10272835, “Exploration of T cell immune responses by expression of a dominant-negative SHP1 and SHP2” (Frontiers in Immunology, 2023)
